Laboratory results: patent publication US11331326B2, “Composition for prevention or treatment of inflammatory skin diseases or severe pruritus comprising the aqueous solubilized ursodeoxycholic acid” (AMICOGEN PHARMA INC., priority 2016, dated 2022)
In brackets after ≈: the same amount, converted by molar mass.

How the values were obtained:
[1] = protonated form (pH 1 to 8); cited from earlier work
[2] = Solubility of ursodeoxycholic acid in water; format: physicochemical; details: pH 1 to 8
[3] = crystalline type of ursodeoxycholic acid; cited from earlier work
[4] = oral administration, crystalline form of UDCA; cited from earlier work

solubility relative to the commercialized UDCA [2] | Structure (SMILES) | solubility [1] | acid dissociation constant, pKa [3] | fraction absorbed at the ileum of the colon by the active transport mechanism [4]
about 10 times | C[C@H](CCC(=O)NCCS(=O)(=O)O)[C@H]1CC[C@H]2[C@@H]3[C@@H](O)C[C@@H]4C[C@H](O)CC[C@]4(C)[C@H]3CC[C@]12C [TUDCA, tauroursodeoxycholic acid] | 450 µM (≈ 225 µg/mL) |  | 
 | C[C@H](CCC(=O)O)[C@H]1CC[C@H]2[C@@H]3[C@@H](O)C[C@@H]4C[C@H](O)CC[C@]4(C)[C@H]3CC[C@]12C [UDCA, ursodeoxycholic acid] | about 0.05 mM | about 5.0 | up to 20 % of intakes
